The source of these data is US10596172B2 (Celgene CAR LLC, priority 2008, dated 2020).

The target in one experiment is TEC kinase (Homo sapiens (Human), UniProt P42680). Briefly: Mass spectrometry for TEC kinase (tryptic digest). Type of experiment: binding. Particulars: 3 hrs at 10x excess. As for the experimental part: TEC kinase (45 pmols; Invitrogen) was incubated with (I-2) (450 pmols) for 3 hrs at 10× excess prior to tryptic digestion. Iodoacetamide was used as the alkylating agent after compound incubation. […] For tryptic digests a 5 ul aliquot (7.5 pmols) was diluted with 15 ul of 0.1% TFA prior to micro C18 Zip Tipping directly onto the MALDI target using alpha cyano-4-hydroxy cinnamic acid as the matrix (5 mg/ml in 0.1% TFA:Acetonitrile 50:50).
Chain of TEC kinase (P42680 whole entry): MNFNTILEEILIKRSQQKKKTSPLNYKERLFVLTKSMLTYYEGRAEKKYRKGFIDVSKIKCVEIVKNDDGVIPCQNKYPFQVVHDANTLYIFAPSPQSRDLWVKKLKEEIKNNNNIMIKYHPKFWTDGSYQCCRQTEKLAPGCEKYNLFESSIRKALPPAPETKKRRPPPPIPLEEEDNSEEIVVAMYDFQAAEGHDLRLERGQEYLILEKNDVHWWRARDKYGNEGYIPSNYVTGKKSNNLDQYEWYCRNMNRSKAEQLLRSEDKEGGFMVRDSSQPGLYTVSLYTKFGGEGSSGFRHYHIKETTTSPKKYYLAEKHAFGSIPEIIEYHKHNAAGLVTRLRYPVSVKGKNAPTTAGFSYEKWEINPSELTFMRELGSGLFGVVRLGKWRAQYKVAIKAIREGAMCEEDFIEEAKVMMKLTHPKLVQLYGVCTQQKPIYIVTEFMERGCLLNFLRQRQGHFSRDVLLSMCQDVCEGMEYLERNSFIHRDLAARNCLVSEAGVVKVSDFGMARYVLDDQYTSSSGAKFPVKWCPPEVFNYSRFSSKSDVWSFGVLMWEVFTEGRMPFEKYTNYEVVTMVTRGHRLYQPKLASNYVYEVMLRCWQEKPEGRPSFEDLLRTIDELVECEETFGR
As depicted in FIG. 6, the expected peptide ([…]) to be modified was immediately evident after reaction with I-2 (MI mass of 359.17 Da) at MH+ of 1294.72. The peptide was also quite evident in the control sample as modified by Iodacetamide at MH+ of 992.56. […] There was no evidence of other modified peptides.
For tryptic digests the instrument was set in Reflectron mode with a pulsed extraction setting of 2200. Calibration was done using the Laser Biolabs Pep Mix standard ([…], 1296.69, 1672.92, 2093.09, 2465.20). For CID/PSD analysis the peptide was selected using cursors to set ion gate timing and fragmentation occurred at a laser power about 20% higher and He was used as the collision gas for CID. Calibration for fragments was done using the P14R fragmentation calibration for the Curved field Reflectron.
TEC kinase (45 pmols; Invitrogen) was incubated with (I-4) (450 pmols) for 3 hrs at 10× excess prior to tryptic digestion. Iodoacetamide was used as the alkylating agent after compound incubation. […] For tryptic digests a 5 ul aliquot (7.5 pmols) was diluted with 15 ul of 0.1% TFA prior to micro C18 Zip Tipping directly onto the MALDI target using alpha cyano-4-hydroxy cinnamic acid as the matrix (5 mg/ml in 0.1% TFA:Acetonitrile 50:50).
As depicted in FIG. 7, the expected peptide ([…]) to be modified was immediately evident at MH+ of 1355.72. This is the mass to be expected when compound I-4, with an adduct mass of 420.21, is added to the peptide mass of 935.51. The peptide was also quite evident in the control sample as modified by Iodacetamide at MH^+ of 992.56. […] There was no evidence of other modified peptides. […]

In another experiment the target is Erbb4 kinase domain (Homo sapiens (Human), UniProt Q15303). Briefly: Mass spectrometry for ERBB4. Type of experiment: binding. As to conditions: 60 minutes at 10-fold excess of compound. The procedure:
Erbb4 kinase domain (Upstate) was incubated with compound for 60 minutes at 10-fold excess of compound I-4 and I-11 to protein. 1 μl aliquots of the samples (total volume of 4.24 ul) were diluted with 10 μl of 0.1% TFA prior to micro C4 ZipTipping directly onto the MALDI target using Sinapinic acid as the desorption matrix (10 mg/ml in 0.1% TFA:Acetonitrile 50:50). For intact protein mass measurement the instrument was set in Linear mode using a pulsed extraction setting of 16,952 for the myoglobin standard used to calibrate the instrument (Shimadzu Axima TOF^2).
Intact ErbB4 protein occurs at MH+ of 35850 with corresponding sinapinic (matrix) adducts occurring about 200 Da higher. A stoichiometric incorporation of the test compound (I-4 and I-11) (Mw of 410 Da) produced a new mass peak which is approximately 410 Da higher (MH+ of 36260).

In another experiment the test system is Human naïve B cells. Put plainly: Human primary B cell proliferation assay. It is filed as cell-based. As to conditions: 5 μg/ml α-IgM 72 hours, 3H-thymidine incorporation. In a few lines:
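CD19+/IgD+ naïve B cells, isolated from human whole blood by negative selection, were stimulated with 5 μg/ml α-IgM for 72 hours in the presence of compound. Proliferation was measured as ^3H-thymidine incorporation over the final 16 h.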
(Uptake of a labelled nucleoside into DNA is a usual measure of proliferation.)

The target of the next experiment is JAK3 (Homo sapiens (Human), UniProt P52333). Put plainly: Mass spectrometry for Janus-3 kinase (JAK3). Type of experiment: binding. Particulars: 3 hrs at 10x excess, tryptic digest. As for the experimental part:
JAK3 kinase (33 pmols; Invitrogen) was incubated with (I-7) (327 pmols) for 3 hrs at 10× excess prior to tryptic digestion. Iodoacetamide was used as the alkylating agent after compound incubation. For tryptic digests a 5 ul aliquot (5.5 pmols) was diluted with 15 ul of 0.1% TFA prior to micro C18 Zip Tipping directly onto the MALDI target using alpha cyano-4-hydroxy cinnamic acid as the matrix (5 mg/ml in 0.1% TFA:Acetonitrile 50:50).
As depicted in FIG. 11, the expected peptide ([…]) to be modified was immediately evident as the largest peak at MH+ of 1725.88. This is the mass to be expected when compound I-7, with an adduct mass of 345.16, is added to the peptide mass of 1380.70. […] There was also evidence for a number of other modified peptides, however, their signals were low.
To further verify the presence of the modified peptides with compound I-7, the peptides at MH+ of 1725.88 and 1118.55 were subjected to PSD (MS/MS) analysis. A correlational analysis with the homo sapien database identified the correct peptides as being modified by I-7.
For tryptic digests the instrument was set in Reflectron mode with a pulsed extraction setting of 2200. Calibration was done using the Laser Biolabs Pep Mix standard ([…], 1296.69, 1672.92, 2093.09, 2465.20). […]

The target in a further experiment is BTK (Homo sapiens (Human), UniProt Q06187). Put plainly: Mass spectrometry for BTK (covalent modification of intact protein). It is filed as binding. As to conditions: 1 hr, 10x fold excess of compound. As for the experimental part: Intact BTK was incubated for 1 hr at a 10× fold excess of I-7 to protein. Aliquots (2 μl) of the samples were diluted with 10 μl of 0.1% TFA prior to micro C4 ZipTipping directly onto the MALDI target using Sinapinic acid as the desorption matrix (10 mg/ml in 0.1% TFA:Acetonitrile 20:80).
Chain of BTK (Q06187 whole entry): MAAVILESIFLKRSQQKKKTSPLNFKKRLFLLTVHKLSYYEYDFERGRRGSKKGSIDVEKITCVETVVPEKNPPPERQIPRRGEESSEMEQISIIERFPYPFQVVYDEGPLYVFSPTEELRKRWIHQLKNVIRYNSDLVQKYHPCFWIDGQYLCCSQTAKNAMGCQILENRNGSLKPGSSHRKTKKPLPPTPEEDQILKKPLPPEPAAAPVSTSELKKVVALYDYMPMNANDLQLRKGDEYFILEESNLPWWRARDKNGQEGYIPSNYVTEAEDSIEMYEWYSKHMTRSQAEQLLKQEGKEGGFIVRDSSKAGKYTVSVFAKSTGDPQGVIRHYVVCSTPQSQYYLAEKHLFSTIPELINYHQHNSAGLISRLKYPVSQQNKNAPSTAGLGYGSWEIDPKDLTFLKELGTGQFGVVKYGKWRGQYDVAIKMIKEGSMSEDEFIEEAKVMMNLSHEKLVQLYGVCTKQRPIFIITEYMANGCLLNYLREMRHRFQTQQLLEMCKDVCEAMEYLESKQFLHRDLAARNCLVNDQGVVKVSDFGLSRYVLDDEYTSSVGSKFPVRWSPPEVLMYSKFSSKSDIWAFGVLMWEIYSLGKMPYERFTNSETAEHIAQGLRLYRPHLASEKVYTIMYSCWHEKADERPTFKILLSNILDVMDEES

The structures appear in SMILES notation.

Chain of Erbb4 kinase domain (Q15303 718-985): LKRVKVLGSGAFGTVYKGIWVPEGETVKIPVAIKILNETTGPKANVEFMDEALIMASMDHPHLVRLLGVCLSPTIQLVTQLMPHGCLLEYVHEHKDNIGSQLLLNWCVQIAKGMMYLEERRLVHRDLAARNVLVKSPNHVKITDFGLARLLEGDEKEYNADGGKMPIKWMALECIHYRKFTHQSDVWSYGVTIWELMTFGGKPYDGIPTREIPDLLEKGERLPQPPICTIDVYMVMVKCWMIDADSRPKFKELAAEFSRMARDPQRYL
Chain of JAK3 (P52333 whole entry): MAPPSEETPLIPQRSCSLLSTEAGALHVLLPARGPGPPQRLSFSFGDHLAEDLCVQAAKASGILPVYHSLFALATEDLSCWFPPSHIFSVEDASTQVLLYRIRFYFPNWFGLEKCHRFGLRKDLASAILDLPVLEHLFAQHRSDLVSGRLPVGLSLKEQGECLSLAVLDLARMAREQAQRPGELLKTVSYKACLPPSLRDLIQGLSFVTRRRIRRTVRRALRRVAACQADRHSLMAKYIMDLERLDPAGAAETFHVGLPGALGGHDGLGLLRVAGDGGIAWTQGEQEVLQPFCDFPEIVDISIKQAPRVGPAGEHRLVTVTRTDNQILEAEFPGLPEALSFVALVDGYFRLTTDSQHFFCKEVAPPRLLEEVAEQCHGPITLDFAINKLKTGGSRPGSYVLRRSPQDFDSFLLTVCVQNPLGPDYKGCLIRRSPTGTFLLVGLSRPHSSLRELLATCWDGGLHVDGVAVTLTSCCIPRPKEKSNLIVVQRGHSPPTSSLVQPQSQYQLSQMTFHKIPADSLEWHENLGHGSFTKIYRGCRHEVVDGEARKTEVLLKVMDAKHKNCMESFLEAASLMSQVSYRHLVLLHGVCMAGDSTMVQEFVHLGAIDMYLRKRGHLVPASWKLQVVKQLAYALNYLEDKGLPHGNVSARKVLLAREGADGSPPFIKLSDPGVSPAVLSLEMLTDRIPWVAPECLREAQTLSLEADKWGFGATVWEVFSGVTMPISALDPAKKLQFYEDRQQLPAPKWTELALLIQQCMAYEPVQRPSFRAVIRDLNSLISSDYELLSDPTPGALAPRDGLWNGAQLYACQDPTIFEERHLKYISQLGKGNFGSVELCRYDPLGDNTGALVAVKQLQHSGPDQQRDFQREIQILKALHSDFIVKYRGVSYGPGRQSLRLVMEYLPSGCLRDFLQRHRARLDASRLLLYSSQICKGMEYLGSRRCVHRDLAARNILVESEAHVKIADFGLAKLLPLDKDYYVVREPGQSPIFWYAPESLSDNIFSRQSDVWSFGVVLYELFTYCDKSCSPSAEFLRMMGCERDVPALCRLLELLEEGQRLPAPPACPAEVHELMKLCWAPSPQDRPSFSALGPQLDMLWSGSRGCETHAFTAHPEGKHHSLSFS

Turning to `Cc1cccc(Nc2nc(Nc3cccc(NC(=O)/C=C/CN(C)C)c3)ncc2F)c1` [Compound I-4, (E)-4-(dimethylamino)-N-(3-(5-fluoro-4-(m-tolylamino)pyrimidin-2-ylamino)phenyl)but-2-enamide], the “covalent modification of TEC kinase peptide GCLLNFLR (Cys449) by mass spectrometry” value on TEC kinase is listed as “reaction was complete”. For the same molecule, the “covalent modification of ErbB4 by mass spectrometry” value at Erbb4 kinase domain is “covalent modification”.

In general, EC50 refers to the concentration at which the effect is half-maximal. Lower therefore signals a more potent agent. Consider `C=CC(=O)Nc1cccc(Nc2nc(Nc3ccccc3)ncc2C)c1` [Compound I-7, N-(3-(5-methyl-2-(phenylamino)pyrimidin-4-ylamino)phenyl)acrylamide], for which the EC50 in the experiment with Human naïve B cells was 1 to 10 nM. In addition, the “covalent modification of JAK3 peptide LVMEYLPSGCLR (Cys909) by mass spectrometry” value on JAK3 is given as “not entirely complete”. On TEC kinase, the “covalent modification of TEC kinase peptide GCLLNFLR (Cys449) by mass spectrometry” value is reported as “reaction was complete”. Also, at BTK, the “covalent modification of BTK by mass spectrometry” value was “complete modification”.
